Experimental data from patent publication US20220387457A1 (Qlaris Bio, Inc., priority 2020, published 2022).
Like-named read-outs stand apart in the source and are kept apart here.

Assays:
mice (IOP) = conditions: previously reported; cited from earlier work
[1] = Toxicokinetics after escalating intravenous doses of CKLP1 in beagles; format: in vivo, beagle dog; design: AUCTlast/Dose: unit not given here; conditions: for AUC(0-t) / Cmax / RAUC / AUC(0-inf) / C0 / Tlast / Tmax / Vd / clearance / half-life / λZ range: dog, in vivo
Procedure: Two beagles (one male and one female) were intravenously injected with escalating doses of CKPL1 (0.05 mg/kg, 0.5 mg/kg, 1.5 mg/kg, 3 mg/kg, and 5 mg/kg) to assess the toxicity of CKLP1. The injection was done through the cephalic vein and CKLP1 was administered in a phosphate buffered saline solution ((0.096% sodium phosphate dibasic, 0.089% sodium dihydrogen orthophosphate monohydrate, 0.83% sodium chloride) pH 6.5±0.1 in sterile water for injection USP). The dosing schedule is shown below in Table 3.
The following parameters and endpoints were evaluated: mortality, clinical observations, body and organ weights, and food consumption. Bioanalytical samples for toxicokinetic parameters (for both CKLP1 and leveromakalim) were collected after each dose level (days 1, 3, 8, 10, and 14) at predose, 1, 3, 6, 8, and 24 hours postdose. Animals were released from the study after completion of the bioanalytical sample collection schedule.
Toxicokinetics (TK) were determined based on the individual exposures for each animal on each sampled study day (days 1, 3, 8, 10, and 14). […] Predose samples had no quantifiable exposure in any animal on any day, with the exception of the female dog on day 10. The predose concentration for the female dog on day 10 was excluded from the TK analysis in order to allow for estimation of the IV C0.

[2] = female dog, IV CKLP1 0.05 mg/kg, study day 1
[3] = female dog, IV CKLP1 0.5 mg/kg, study day 3
[4] = female dog, IV CKLP1 1.5 mg/kg, study day 8
[5] = female dog, IV CKLP1 3 mg/kg, study day 10
[6] = female dog, IV CKLP1 5 mg/kg, study day 14
[7] = male dog, IV CKLP1 0.05 mg/kg, study day 1
[8] = male dog, IV CKLP1 0.5 mg/kg, study day 3
[9] = male dog, IV CKLP1 1.5 mg/kg, study day 8
[10] = male dog, IV CKLP1 3 mg/kg, study day 10

CC1(C)Oc2ccc(C#N)cc2[C@@H](N2CCCC2=O)[C@@H]1OP(=O)(O)O [CKLP1]
IOP lowered by (mice (IOP)): approximately 17%
gender differences in AUC values following each dose ([1]; IV CKLP1): less than 2 fold
AUC(0-t) ([1]; both sexes, beagle, CKLP1, IV 3 mg/kg, read-out: AUCTlast at MTD, sex-combined): 107000 ng·h/mL
Cmax ([1]; both sexes, beagle, CKLP1, IV 3 mg/kg, read-out: Cmax at MTD, sex-combined): 16.4 µg/mL
RAUC ([1]; iv, 0.05 mg/kg): LOO
plasma concentrations of CKLP1 relative to levcromakalim ([1]; early time points after IV CKLP1): more than 300 fold
AUCTlast/Dose [1, 2]: 41900
Cmax/Dose [1, 2]: 7.12e+06 µg/mL
AUCTlast/Dose [1, 3]: 41900
Cmax/Dose [1, 3]: 5.98e+06 µg/mL
AUCTlast/Dose [1, 4]: 40800
Cmax/Dose [1, 4]: 6.03e+06 µg/mL
AUCTlast/Dose [1, 5]: 42800
Cmax/Dose [1, 5]: 6.13e+06 µg/mL
AUCTlast/Dose [1, 6]: 62300
Cmax/Dose [1, 6]: 5.86e+06 µg/mL
AUC(0-inf) ([1]; female, beagle, iv, 0.05 mg/kg): 2110 ng·h/mL
AUC(0-t) ([1]; female, beagle, iv, 0.05 mg/kg): 2100 ng·h/mL
C0 ([1]; female, beagle, iv, 0.05 mg/kg): 0.461 µg/mL
Cmax ([1]; female, beagle, iv, 0.05 mg/kg): 0.356 µg/mL
RAUC ([1]; female, beagle, iv, 0.05 mg/kg): 1.00
Tlast ([1]; female, beagle, iv, 0.05 mg/kg): 24.0 h
Tmax ([1]; female, beagle, iv, 0.05 mg/kg): 1 h
Vd ([1]; female, beagle, iv, 0.05 mg/kg): 0.112 L/kg
clearance ([1]; female, beagle, iv, 0.05 mg/kg): 0.395 mL/min/kg
half-life ([1]; female, beagle, iv, 0.05 mg/kg): 3.26 h
λZ range ([1]; female, beagle, iv, 0.05 mg/kg): 6 to 24 h
AUC(0-inf) ([1]; female, beagle, iv, 0.5 mg/kg): 21200 ng·h/mL
AUC(0-t) ([1]; female, beagle, iv, 0.5 mg/kg): 20900 ng·h/mL
C0 ([1]; female, beagle, iv, 0.5 mg/kg): 3.67 µg/mL
Cmax ([1]; female, beagle, iv, 0.5 mg/kg): 2.99 µg/mL
RAUC ([1]; female, beagle, iv, 0.5 mg/kg): 10.0
Tlast ([1]; female, beagle, iv, 0.5 mg/kg): 24.0 h
Tmax ([1]; female, beagle, iv, 0.5 mg/kg): 1 h
Vd ([1]; female, beagle, iv, 0.5 mg/kg): 0.139 L/kg
clearance ([1]; female, beagle, iv, 0.5 mg/kg): 0.392 mL/min/kg
half-life ([1]; female, beagle, iv, 0.5 mg/kg): 4.11 h
λZ range ([1]; female, beagle, iv, 0.5 mg/kg): 6 to 24 h
AUC(0-inf) ([1]; female, beagle, iv, 1.5 mg/kg): 62500 ng·h/mL
AUC(0-t) ([1]; female, beagle, iv, 1.5 mg/kg): 61200 ng·h/mL
C0 ([1]; female, beagle, iv, 1.5 mg/kg): 11 µg/mL
Cmax ([1]; female, beagle, iv, 1.5 mg/kg): 9.05 µg/mL
RAUC ([1]; female, beagle, iv, 1.5 mg/kg): 29.1
Tlast ([1]; female, beagle, iv, 1.5 mg/kg): 24.0 h
Tmax ([1]; female, beagle, iv, 1.5 mg/kg): 1 h
Vd ([1]; female, beagle, iv, 1.5 mg/kg): 0.162 L/kg
clearance ([1]; female, beagle, iv, 1.5 mg/kg): 0.4 mL/min/kg
half-life ([1]; female, beagle, iv, 1.5 mg/kg): 4.68 h
λZ range ([1]; female, beagle, iv, 1.5 mg/kg): 6 to 24 h
AUC(0-inf) ([1]; female, beagle, iv, 3 mg/kg): 129000 ng·h/mL
AUC(0-t) ([1]; female, beagle, iv, 3 mg/kg): 128000 ng·h/mL
C0 ([1]; female, beagle, iv, 3 mg/kg): 22.7 µg/mL
Cmax ([1]; female, beagle, iv, 3 mg/kg): 18.4 µg/mL
RAUC ([1]; female, beagle, iv, 3 mg/kg): 61.0
Tlast ([1]; female, beagle, iv, 3 mg/kg): 24.0 h
Tmax ([1]; female, beagle, iv, 3 mg/kg): 1 h
Vd ([1]; female, beagle, iv, 3 mg/kg): 0.099 L/kg
clearance ([1]; female, beagle, iv, 3 mg/kg): 0.388 mL/min/kg
half-life ([1]; female, beagle, iv, 3 mg/kg): 2.94 h
λZ range ([1]; female, beagle, iv, 3 mg/kg): 6 to 24 h
AUC(0-inf) ([1]; female, beagle, iv, 5 mg/kg): 330000 ng·h/mL
AUC(0-t) ([1]; female, beagle, iv, 5 mg/kg): 311000 ng·h/mL
C0 ([1]; female, beagle, iv, 5 mg/kg): 32.2 µg/mL
Cmax ([1]; female, beagle, iv, 5 mg/kg): 29.3 µg/mL
RAUC ([1]; female, beagle, iv, 5 mg/kg): 148
Tlast ([1]; female, beagle, iv, 5 mg/kg): 24.0 h
Tmax ([1]; female, beagle, iv, 5 mg/kg): 1 h
Vd ([1]; female, beagle, iv, 5 mg/kg): 0.131 L/kg
clearance ([1]; female, beagle, iv, 5 mg/kg): 0.253 mL/min/kg
half-life ([1]; female, beagle, iv, 5 mg/kg): 5.98 h
λZ range ([1]; female, beagle, iv, 5 mg/kg): 3 to 24 h
AUCTlast/Dose [1, 7]: 22400
Cmax/Dose [1, 7]: 4.9e+06 µg/mL
AUCTlast/Dose [1, 8]: 28500
Cmax/Dose [1, 8]: 5.2e+06 µg/mL
AUCTlast/Dose [1, 9]: 28800
Cmax/Dose [1, 9]: 5.13e+06 µg/mL
AUCTlast/Dose [1, 10]: 28400
Cmax/Dose [1, 10]: 4.8e+06 µg/mL
